# Test results from PMC12406664, “New derivatives of 6-nitrocoumarin-3-thiosemicarbazone exhibit improved antiparasitic activity in the placenta against Trypanosoma cruzi and Toxoplasma gondii” (Antimicrobial Agents and Chemotherapy, 2025).
# Entries after “also recorded” stand apart in the source; their conditions may differ.
# How the values were obtained:
# [1] = Cyclic voltammetry, reduction potentials in DMSO (HDME, vs. Ag/AgCl); conditions: 2.00 V/s
# Description: Electrochemical studies were carried out on a Metrohm Autolab instrument model PGSTAT204, using dimethyl sulfoxide (DMSO) as the solvent (1 mM solutions), tetrabutylammonium perchlorate (0.1 M TBAP) as the supporting electrolyte, a hanging drop mercury electrode (HDME) as the working electrode, Ag/AgCl (3M KCl) as the reference electrode and a graphite rod as the counter electrode. All measurements were performed after bubbling with nitrogen (N2) for 10 minutes.
# [2] = tested on: T. gondii (RH strain) in BeWo cells; experiment: T. gondii DNA load in infected BeWo cells by real-time qPCR; format: cell-based, Toxoplasma gondii; conditions: IC50 concentration
# Description: Cells or HPE were exposed to parasites. […] The following treatment conditions were used in both infection models. […] Untreated cells or HPE served as a negative control, and the compounds’ activity was compared with the reference drugs (NFX and PMN).
# Subsequently, cells were exposed to parasites at a 1:1 ratio (cell: parasite) for 24 hours. Finally, the cells were washed with PBS and harvested using trypsin. For the parasitic DNA load in the ex vivo infection model, HPE was incubated in 24-well plates and exposed to parasites at a concentration of 10^5 parasites/mL for 24 hours. Finally, they were washed with PBS and homogenized using the ultraturrax homogenizer OMNI TipTM. Genomic DNA was extracted from BeWo cells or HPE using the Wizard Genomic DNA Purification Kit (Promega, USA) following the manufacturer’s instructions. The resulting DNA was quantified using a μDrop Plate DNA quantification system on the Varioskan Flash multimode reader (Thermo Scientific, USA). For the amplification of human DNA and parasitic DNA, three pairs of primers specific for human GAPDH (hGADPH), T. cruzi satellite DNA, and T. gondii B1 gene DNA were used (Table 7). Each reaction mixture contained 0.5 µL of 10 nM of each primer (Forward and reverse), 1 ng of DNA from T. cruzi samples, 10 ng of DNA from T. gondii samples, 10 µL of SensiFASTTM SYBR Hi-ROX kit (Bioline, Heidelberg, Baden Württemberg, Germany), and ultrapure water (Sigma-Aldrich, St. Louis, MO, USA) for a total of 20 µL.
# (§1) Amplification was carried out using the CFX96 Touch Deep Well Real-Time PCR Detection System (Biorad, California, USA) with the following cycling program: initial denaturation at 95°C for 3 min, followed by 40 cycles of denaturation at 95°C for 5 s, annealing at 60°C for 30 s, and a dissociation stage ranging from 60°C to 95°C. The relative quantification analysis of the results was expressed as RQ values using the comparative […] (∆∆Ct) ([80]).
# [3] = tested on: T. gondii (RH strain) in HPE; experiment: T. gondii DNA load in infected human placental explants (HPE) by real-time qPCR; format: cell-based, Toxoplasma gondii; conditions: 24 hour post-infection treatment, IC50 concentration
# Description: The effect on HPE infection of compounds 1 and 7 by Toxoplasma gondii and Trypanosoma cruzi, respectively, was evaluated. To do this, the DNA of the T. gondii or T. cruzi parasite was quantified by infecting HPE for 24 hours under treatment conditions of co-incubation of compounds with the parasite at the same time of infection, and with a 24 hour post-infection treatment. The compound’s IC50 concentration value previously obtained under both conditions was used.
# Term human placentas were obtained from uncomplicated pregnancies via scheduled cesarean sections. Each patient provided informed consent for the experimental use of the placenta, and the study was approved by the ethics committee of Hospital San José, Servicio Salud Metropolitano Norte (N° 013/2022). Exclusion criteria for placental use included significant fetal anomalies, placental tumors, intrauterine infection, positive serology for Chagas disease, obstetric pathology, and any other maternal disease. Donor patients tested negative for T. gondii IgG/IgM antibodies. Organs were collected in sterile, cold PBS and processed within 30 minutes after delivery. Maternal and fetal surfaces of each placenta were discarded, and the villous tissue from the central part of the placental cotyledons was isolated. […] All the experiments were performed in triplicate in at least three different placentas.
# Cells or HPE were exposed to parasites. […]
# Subsequently, cells were exposed to parasites at a 1:1 ratio (cell: parasite) for 24 hours. […] The resulting DNA was quantified using a μDrop Plate DNA quantification system on the Varioskan Flash multimode reader (Thermo Scientific, USA). […]
# as §1
structure (smiles),measurement,setting,value
"C/C(=N\NC(N)=S)c1c(O)c2cc([N+](=O)[O-])ccc2oc1=O [Compound 1, (E)−2-(1-(4-hydroxy-6-nitro-2-oxo-2H-chromen-3-yl)ethylidene)hydrazine-1-carbothioamide]",E(pIIa),[1]; anodic peak IIa,−0.98 V
same,E(pIcb),"[1]; cathodic peak Icb, nitro reduction",~−0.99 V
same,decrease in parasite DNA load,[2]; co-incubation,around 50%
same,effect on parasite DNA load,[2]; post-infection treatment,no activity against the intracellular form
same,effect on parasite DNA load,[3],not statistically significant; also recorded: did not reduce the parasitic load
